Laboratory results as given in patent publication US20090036499A1, “FLY CONTROL METHOD” (priority 2007, published 2009).

Test system: Adult L. serricata (blowflies)
Assay: Test A: adult blowflies on blood agar containing test compound, scored by number of dead flies
Type: in vivo
Conditions: 4 flies in test
Protocol: • Adult L. serricata (blowflies): Adult flies are placed on beds of blood agar (in individual test wells; 4 flies per well) in which test compound, (3-bromo-N-[4-chloro-2-methyl-6-[(methylamino)carbonyl]phenyl]-1-(3-chloro-2-pyridinyl)-1H-pyrazole-5-carboxamide), was dissolved/suspended prior to hardening of agar. Flies can take up test compound by both ingestion and contact. Assays are scored by number of dead flies at 2 hours, 4 hours, and 24 hours.

Row | Structure (SMILES) | Number dead flies at 2 hours (1 ppm in blood agar) | Number dead flies at 4 hours (1 ppm in blood agar) | Number dead flies at 24 hours (1 ppm in blood agar) | Number dead flies at 2 hours (10 ppm in blood agar) | Number dead flies at 4 hours (10 ppm in blood agar) | Number dead flies at 24 hours (10 ppm in blood agar) | Number dead flies at 2 hours (25 ppm in blood agar) | Number dead flies at 4 hours (25 ppm in blood agar) | Number dead flies at 24 hours (25 ppm in blood agar) | Number dead flies at 2 hours (50 ppm in blood agar) | Number dead flies at 4 hours (50 ppm in blood agar) | Number dead flies at 24 hours (50 ppm in blood agar) | Number dead flies at 2 hours (100 ppm in blood agar) | Number dead flies at 4 hours (100 ppm in blood agar) | Number dead flies at 24 hours (100 ppm in blood agar)
1 | CNC(=O)c1cc(Cl)cc(C)c1NC(=O)c1cc(Br)nn1-c1ncccc1Cl [Test Compound, 3-bromo-N-[4-chloro-2-methyl-6-[(methylamino)carbonyl]phenyl]-1-(3-chloro-2-pyridinyl)-1H-pyrazole-5-carboxamide] | 0 | 0 | 0 | 0 | 0 | 1 | 0 | 0 | 2 | 0 | 0 | 2 | 0 | 0 | 3
2 | CCOP(=S)(OCC)Oc1nc(Cl)c(Cl)cc1Cl [Chloropyriphos, O,O-diethyl-O-3,5,6-trichloro-2-pyridyl-phosphorothioate] | 0 | 1 | 4 | 1 | 4 | 4 | 3 | 4 | 4 | 4 | 4 | 4 | 4 | 4 | 4
